ChEMBL document CHEMBL1126045, “Alanine series of ovine corticotropin releasing factor (oCRF): a structure-activity relationship study” (J Med Chem, 1992)

Target: Corticotropin releasing factor receptor (Rattus norvegicus) (UniProt P47866+P35353)
Assay: In vitro ability (peptide) to stimulate ACTH release by rat anterior pituitary cells relative to Ovine corticotropin releasing factor (oCRF).
Format: cell-based
Parameters: unit not given here
Conditions: Pituitary gland cell

Sequence of Corticotropin releasing factor receptor (Rattus norvegicus) (P35353 whole entry, looked up): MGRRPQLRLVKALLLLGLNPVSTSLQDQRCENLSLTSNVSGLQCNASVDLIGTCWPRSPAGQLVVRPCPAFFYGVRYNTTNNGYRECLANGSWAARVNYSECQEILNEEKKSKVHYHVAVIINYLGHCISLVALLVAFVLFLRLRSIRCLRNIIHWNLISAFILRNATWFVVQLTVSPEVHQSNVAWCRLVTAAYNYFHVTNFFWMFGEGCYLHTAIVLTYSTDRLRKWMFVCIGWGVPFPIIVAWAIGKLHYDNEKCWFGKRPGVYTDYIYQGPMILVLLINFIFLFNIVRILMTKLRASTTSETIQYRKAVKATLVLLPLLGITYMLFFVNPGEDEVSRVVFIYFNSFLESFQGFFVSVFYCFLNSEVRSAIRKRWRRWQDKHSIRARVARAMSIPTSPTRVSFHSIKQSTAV
Sequence of Corticotropin releasing factor receptor (Rattus norvegicus) (P47866 whole entry, looked up): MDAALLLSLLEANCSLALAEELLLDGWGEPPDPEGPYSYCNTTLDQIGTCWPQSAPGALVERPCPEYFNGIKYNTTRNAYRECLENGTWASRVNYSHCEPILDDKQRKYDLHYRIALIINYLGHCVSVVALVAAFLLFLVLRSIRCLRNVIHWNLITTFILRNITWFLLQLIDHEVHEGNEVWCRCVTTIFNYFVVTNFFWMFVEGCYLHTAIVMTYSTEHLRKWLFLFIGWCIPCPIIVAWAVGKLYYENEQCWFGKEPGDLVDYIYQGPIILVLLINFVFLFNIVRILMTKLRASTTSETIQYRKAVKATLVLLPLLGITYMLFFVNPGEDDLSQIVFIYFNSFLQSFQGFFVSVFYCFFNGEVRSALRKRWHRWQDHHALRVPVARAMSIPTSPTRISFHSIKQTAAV

| Relative potency | Compound |
| --- | --- |
| 0.006 | CC[C@H](C)[C@H](NC(=O)[C@H](CC(=O)O)NC(=O)[C@H](CC(C)C)NC(=O)[C@H](CC(C)C)NC(=O)[C@H](CCCCN)NC(=O)[C@H](CCCN=C(N)N)NC(=O)[C@H](CC(N)=O)NC(=O)[C@H](CO)NC(=O)[C@H](Cc1c[nH]cn1)NC(=O)[C@H](C)NC(=O)[C@H](CCC(N)=O)NC(=O)[C@H](CCC(N)=O)NC(=O)[C@H](C)NC(=O)[C@H](CC(C)C)NC(=O)[C@H](CCC(N)=O)NC(=O)[C@H](CC(=O)O)NC(=O)[C@H](C)NC(=O)[C@H](CCCCN)NC(=O)[C@@H](NC(=O)[C@H](CCSC)NC(=O)[C@H](CCC(=O)O)NC(=O)[C@H](CC(C)C)NC(=O)[C@@H](NC(=O)[C@H](CCC(=O)O)NC(=O)[C@H](CCCN=C(N)N)NC(=O)[C@H](CC(C)C)NC(=O)[C@H](CC(C)C)NC(=O)[C@H](Cc1c[nH]cn1)NC(=O)[C@H](Cc1ccccc1)NC(=O)[C@@H](NC(=O)[C@H](C)NC(=O)[C@H](CC(=O)O)NC(=O)[C@H](CC(C)C)NC(=O)[C@H](CO)NC(=O)[C@@H](NC(=O)[C@@H]1CCCN1C(=O)[C@@H]1CCCN1C(=O)[C@H](CCC(=O)O)NC(=O)[C@H](CCC(N)=O)NC(=O)[C@@H](N)CO)[C@@H](C)CC)[C@@H](C)O)C(C)C)[C@@H](C)O)C(=O)N[C@@H](C)C(N)=O |
| 0.004 | CC[C@H](C)[C@H](NC(=O)[C@H](CC(=O)O)NC(=O)[C@H](CC(C)C)NC(=O)[C@H](CC(C)C)NC(=O)[C@H](CCCCN)NC(=O)[C@H](CCCN=C(N)N)NC(=O)[C@H](CC(N)=O)NC(=O)[C@H](CO)NC(=O)[C@H](Cc1c[nH]cn1)NC(=O)[C@H](C)NC(=O)[C@H](CCC(N)=O)NC(=O)[C@H](CCC(N)=O)NC(=O)[C@H](C)NC(=O)[C@H](CC(C)C)NC(=O)[C@H](CCC(N)=O)NC(=O)[C@H](CC(=O)O)NC(=O)[C@H](C)NC(=O)[C@H](CCCCN)NC(=O)[C@@H](NC(=O)[C@H](CCSC)NC(=O)[C@H](CCC(=O)O)NC(=O)[C@H](CC(C)C)NC(=O)[C@@H](NC(=O)[C@H](CCC(=O)O)NC(=O)[C@H](CCCN=C(N)N)NC(=O)[C@H](CC(C)C)NC(=O)[C@H](CC(C)C)NC(=O)[C@H](Cc1c[nH]cn1)NC(=O)[C@H](Cc1ccccc1)NC(=O)[C@@H](NC(=O)[C@H](CC(C)C)NC(=O)[C@H](CC(=O)O)NC(=O)[C@H](CC(C)C)NC(=O)[C@H](CO)NC(=O)[C@H](C)NC(=O)[C@@H]1CCCN1C(=O)[C@@H]1CCCN1C(=O)[C@H](CCC(=O)O)NC(=O)[C@H](CCC(N)=O)NC(=O)[C@@H](N)CO)[C@@H](C)O)C(C)C)[C@@H](C)O)C(=O)N[C@@H](C)C(N)=O |
| 0.4 | CC[C@H](C)[C@H](NC(=O)[C@H](CC(=O)O)NC(=O)[C@H](CC(C)C)NC(=O)[C@H](CC(C)C)NC(=O)[C@H](CCCCN)NC(=O)[C@H](CCCN=C(N)N)NC(=O)[C@H](CC(N)=O)NC(=O)[C@H](CO)NC(=O)[C@H](Cc1c[nH]cn1)NC(=O)[C@H](C)NC(=O)[C@H](CCC(N)=O)NC(=O)[C@H](CCC(N)=O)NC(=O)[C@H](C)NC(=O)[C@H](CC(C)C)NC(=O)[C@H](CCC(N)=O)NC(=O)[C@H](CC(=O)O)NC(=O)[C@H](C)NC(=O)[C@H](CCCCN)NC(=O)[C@@H](NC(=O)[C@H](CCSC)NC(=O)[C@H](CCC(=O)O)NC(=O)[C@H](CC(C)C)NC(=O)[C@@H](NC(=O)[C@H](CCC(=O)O)NC(=O)[C@H](CCCN=C(N)N)NC(=O)[C@H](CC(C)C)NC(=O)[C@H](CC(C)C)NC(=O)[C@H](Cc1c[nH]cn1)NC(=O)[C@H](Cc1ccccc1)NC(=O)[C@H](C)NC(=O)[C@H](CC(C)C)NC(=O)[C@H](CC(=O)O)NC(=O)[C@H](CC(C)C)NC(=O)[C@H](CO)NC(=O)[C@@H](NC(=O)[C@@H]1CCCN1C(=O)[C@@H]1CCCN1C(=O)[C@H](CCC(=O)O)NC(=O)[C@H](CCC(N)=O)NC(=O)[C@@H](N)CO)[C@@H](C)CC)C(C)C)[C@@H](C)O)C(=O)N[C@@H](C)C(N)=O |
| 1 | CC[C@H](C)[C@H](NC(=O)[C@H](CC(=O)O)NC(=O)[C@H](CC(C)C)NC(=O)[C@H](CC(C)C)NC(=O)[C@H](CCCCN)NC(=O)[C@H](CCCNC(=N)N)NC(=O)[C@H](CC(N)=O)NC(=O)[C@H](CO)NC(=O)[C@H](Cc1cnc[nH]1)NC(=O)[C@H](C)NC(=O)[C@H](CCC(N)=O)NC(=O)[C@H](CCC(N)=O)NC(=O)[C@H](C)NC(=O)[C@H](CC(C)C)NC(=O)[C@H](CCC(N)=O)NC(=O)[C@H](CC(=O)O)NC(=O)[C@H](C)NC(=O)[C@H](CCCCN)NC(=O)[C@@H](NC(=O)[C@H](CCSC)NC(=O)[C@H](CCC(=O)O)NC(=O)[C@H](CC(C)C)NC(=O)[C@@H](NC(=O)[C@H](CCC(=O)O)NC(=O)[C@H](CCCNC(=N)N)NC(=O)[C@H](CC(C)C)NC(=O)[C@H](CC(C)C)NC(=O)[C@H](Cc1cnc[nH]1)NC(=O)[C@H](Cc1ccccc1)NC(=O)[C@@H](NC(=O)[C@H](CC(C)C)NC(=O)[C@H](CC(=O)O)NC(=O)[C@H](CC(C)C)NC(=O)[C@H](CO)NC(=O)[C@@H](NC(=O)[C@@H]1CCCN1C(=O)[C@@H]1CCCN1C(=O)[C@H](CCC(=O)O)NC(=O)[C@H](CCC(N)=O)NC(=O)[C@@H](N)CO)[C@@H](C)CC)[C@@H](C)O)C(C)C)[C@@H](C)O)C(=O)N[C@@H](C)C(N)=O |
| 0.09 | H-SQEPPISLDLTFHLAREVLEMTKADQLAQQAHSNRKLLDIA-NH2 |
| 0.6 | H-SQEPPISLDLTFHLLRAVLEMTKADQLAQQAHSNRKLLDIA-NH2 |
| 0.5 | H-SQEPPISLDLTFHLLREALEMTKADQLAQQAHSNRKLLDIA-NH2 |
| 0.4 | H-SQEPPISLDLTFHLLREVLEATKADQLAQQAHSNRKLLDIA-NH2 |
| 3.4 | H-SQEPPISLDLTFHLLREVLEMAKADQLAQQAHSNRKLLDIA-NH2 |
| 1.7 | H-SQEPPISLDLTFHLLREVLEMTKAAQLAQQAHSNRKLLDIA-NH2 |
| 0.8 | H-SQEPPISLDLTFHLLREVLEMTKADQLAQAAHSNRKLLDIA-NH2 |
| 1.1 | H-SQEPPISLDLTFHLLREVLEMTKADQLAQQAHSARKLLDIA-NH2 |
| 0.02 | H-SQEPPISLDLTFHLLREVLEMTKADQLAQQAHSNAKLLDIA-NH2 |
| 1.7 | H-SQEPPISLDLTFHLLREVLEMTKADQLAQQAHSNRKLLDAA-NH2 |

Further lines, the compound ahead of its results:

| Compound | Relative potency |
| --- | --- |
| CC[C@H](C)[C@H](NC(=O)[C@H](C)NC(=O)[C@@H]1CCCN1C(=O)[C@H](CCC(=O)O)NC(=O)[C@H](CCC(N)=O)NC(=O)[C@@H](N)CO)C(=O)N[C@@H](CO)C(=O)N[C@@H](CC(C)C)C(=O)N[C@@H](CC(=O)O)C(=O)N[C@@H](CC(C)C)C(=O)N[C@H](C(=O)N[C@@H](Cc1ccccc1)C(=O)N[C@@H](Cc1c[nH]cn1)C(=O)N[C@@H](CC(C)C)C(=O)N[C@@H](CC(C)C)C(=O)N[C@@H](CCCN=C(N)N)C(=O)N[C@@H](CCC(=O)O)C(=O)N[C@H](C(=O)N[C@@H](CC(C)C)C(=O)N[C@@H](CCC(=O)O)C(=O)N[C@@H](CCSC)C(=O)N[C@H](C(=O)N[C@@H](CCCCN)C(=O)N[C@@H](C)C(=O)N[C@@H](CC(=O)O)C(=O)N[C@@H](CCC(N)=O)C(=O)N[C@@H](CC(C)C)C(=O)N[C@@H](C)C(=O)N[C@@H](CCC(N)=O)C(=O)N[C@@H](CCC(N)=O)C(=O)N[C@@H](C)C(=O)N[C@@H](Cc1c[nH]cn1)C(=O)N[C@@H](CO)C(=O)N[C@@H](CC(N)=O)C(=O)N[C@@H](CCCN=C(N)N)C(=O)N[C@@H](CCCCN)C(=O)N[C@@H](CC(C)C)C(=O)N[C@@H](CC(C)C)C(=O)N[C@@H](CC(=O)O)C(=O)N[C@H](C(=O)N[C@@H](C)C(N)=O)[C@@H](C)CC)[C@@H](C)O)C(C)C)[C@@H](C)O | 0.6 |
| CC[C@H](C)[C@H](NC(=O)[C@H](CC(=O)O)NC(=O)[C@H](CC(C)C)NC(=O)[C@H](CC(C)C)NC(=O)[C@H](CCCCN)NC(=O)[C@H](CCCN=C(N)N)NC(=O)[C@H](CC(N)=O)NC(=O)[C@H](CO)NC(=O)[C@H](Cc1c[nH]cn1)NC(=O)[C@H](C)NC(=O)[C@H](CCC(N)=O)NC(=O)[C@H](CCC(N)=O)NC(=O)[C@H](C)NC(=O)[C@H](CC(C)C)NC(=O)[C@H](CCC(N)=O)NC(=O)[C@H](CC(=O)O)NC(=O)[C@H](C)NC(=O)[C@H](CCCCN)NC(=O)[C@@H](NC(=O)[C@H](CCSC)NC(=O)[C@H](CCC(=O)O)NC(=O)[C@H](CC(C)C)NC(=O)[C@@H](NC(=O)[C@H](CCC(=O)O)NC(=O)[C@H](CCCN=C(N)N)NC(=O)[C@H](CC(C)C)NC(=O)[C@H](CC(C)C)NC(=O)[C@H](Cc1c[nH]cn1)NC(=O)[C@H](Cc1ccccc1)NC(=O)[C@@H](NC(=O)[C@H](CC(C)C)NC(=O)[C@H](C)NC(=O)[C@H](CC(C)C)NC(=O)[C@H](CO)NC(=O)[C@@H](NC(=O)[C@@H]1CCCN1C(=O)[C@@H]1CCCN1C(=O)[C@H](CCC(=O)O)NC(=O)[C@H](CCC(N)=O)NC(=O)[C@@H](N)CO)[C@@H](C)CC)[C@@H](C)O)C(C)C)[C@@H](C)O)C(=O)N[C@@H](C)C(N)=O | 0.004 |
| H-SQEPPISLDLTAHLLREVLEMTKADQLAQQAHSNRKLLDIA-NH2 | 0.006 |
| H-SQEPPISLDLTFALLREVLEMTKADQLAQQAHSNRKLLDIA-NH2 | 0.14 |
| H-SQEPPISLDLTFHLLAEVLEMTKADQLAQQAHSNRKLLDIA-NH2 | 0.02 |
| H-SQEPPISLDLTFHLLREVAEMTKADQLAQQAHSNRKLLDIA-NH2 | 0.09 |
| H-SQEPPISLDLTFHLLREVLEMTAADQLAQQAHSNRKLLDIA-NH2 | 0.28 |
| H-SQEPPISLDLTFHLLREVLEMTKADALAQQAHSNRKLLDIA-NH2 | 1.1 |
| H-SQEPPISLDLTFHLLREVLEMTKADQLAQQAASNRKLLDIA-NH2 | 4.5 |
| H-SQEPPISLDLTFHLLREVLEMTKADQLAQQAHANRKLLDIA-NH2 | 2 |
| H-SQEPPISLDLTFHLLREVLEMTKADQLAQQAHSNRALLDIA-NH2 | 0.8 |
| H-SQEPPISLDLTFHLLREVLEMTKADQLAQQAHSNRKALDIA-NH2 | 0.7 |
| H-SQEPPISLDLTFHLLREVLEMTKADQLAQQAHSNRKLLAIA-NH2 | 1.8 |
